In patent publication US20240376035A1, “METHOD FOR PRODUCING HESPERETIN DIHYDROCHALCONE” (SYMRISE AG, priority 2022, published 2024):

What was measured:
trained expert panel = assay: Sensory descriptive analysis of ice tea prototypes in different bases (Example 15); format: in vivo; settings: for ANOVA (sweetness factor score): 10 ppm hesperetin dihydrochalcone and/or 3 ppm hesperetin; for effect on the sweetness factor: main and interaction effects in different bases, all sign. p<0.0001
From the text: Based on an experimental design, 86 ice tea prototypes (drinkable preparations) were created that systematically varied regarding different sources of sweetness conveyed by sugars (e.g. HFCS (high fructose corn syrup), invert sugar syrup), sweeteners (Reb A, Reb D, Reb M, sucralose, acesulfame K) as well as hesperetin dihydrochalcone (HC) and hesperetin (HT) (the results are depicted in Table 2).
In order to investigate the effect of HT and HC on perceived sweetness dimensions, the 86 samples were profiled (sensory descriptive analysis) by a trained expert panel consisting of 12 panelists. The panelists were trained on an ice tea language with focus on sweetness attributes. Each attribute was scored on an unstructured line scale (10 cm) for its perceived intensity. To ensure high data reliability, every sample was tested twice. The sweetness attributes “sweetness onset”, “sweetness overall intensity” and “sweetness long-lastingness” were aggregated to a so-called sweetness factor using factor analysis (principal component analysis with VARIMAX rotation). The sweetness factor score runs from neg. infinity to positive infinity. By applying statistical modelling (JMP software: fit model: standard least squares, Analysis of Variance: DF 86, F 19.6907, p<0.0001; Rsquare 0.972) all significant main and two-way interaction effects were identified amongst which HC (p<0.0001), HT (p<0.0001) and the interaction of HC and HT (p<0.0001) were identified. These main and interaction effects were further tested in different bases (see table 2) using ANOVA, p<0.05; post hoc test: LSD.

[1] = preparations having a high content of acid such as lemonades or fruit juices; cited from earlier work
[2] = Acesulfame K Ice tea Base, 60 ppm
[3] = HFCS Ice tea Base, 2 wt. % High Fructose corn syrup
[4] = Invert Sugar Syrup Ice tea Base, 2 wt. % invert sugar syrup
[5] = Reb A Ice tea Base, 60 ppm rebaudioside A
[6] = Reb A/Reb D Ice tea Base, 60 ppm rebaudioside A/60 ppm rebaudioside D
[7] = Reb A/Reb M Ice tea Base, 60 ppm rebaudioside A/45 ppm rebaudioside M
[8] = Reb M/Reb D Ice tea Base, 45 ppm rebaudioside M/60 ppm rebaudioside D
[9] = Sucralose Ice tea Base, 100 ppm sucralose

SMILES | ANOVA (sweetness factor score) (trained expert panel; [2]) | ANOVA (sweetness factor score) (trained expert panel; [3]) | ANOVA (sweetness factor score) (trained expert panel; [4]) | ANOVA (sweetness factor score) (trained expert panel; [5]) | ANOVA (sweetness factor score) (trained expert panel; [6]) | ANOVA (sweetness factor score) (trained expert panel; [7]) | ANOVA (sweetness factor score) (trained expert panel; [8]) | ANOVA (sweetness factor score) (trained expert panel; [9]) | ANOVA (sweetness factor score) (trained expert panel; Sugar Free Ice tea Base) | effect on the sweetness factor (trained expert panel) | effectivity as intensifier of the sweet flavour [1]
COc1ccc(CCC(=O)c2c(O)cc(O)cc2O)cc1O [Hesperetin dihydrochalcone] | −0.1 | −0.9 | −1 | −0.5 | −0.1 | 0 | −0.3 | −0.8 | −1.3 | positive effect | 
COc1ccc([C@@H]2CC(=O)c3c(O)cc(O)cc3O2)cc1O [Hesperetin, hesperetin] | −2.4 | −3.2 | −3.3 | −2.8 | −2.4 | −2.3 | −2.6 | −3.1 | −3.6 | smallest positive effect | diminished effectivity
